Earlier results in patent US20050245504A1, “Treatment of diseases with combinations of alpha 7 Nicotinic Acetylcholine Receptor agonists and other compounds” (priority 2002, published 2005).
Read-outs that look alike come from different tables or passages of the source.

Legend:
5HT3R = biological target: T1, 5HT3R (Homo sapiens, UniProt P46098)
T1 sequence (P46098 24-478): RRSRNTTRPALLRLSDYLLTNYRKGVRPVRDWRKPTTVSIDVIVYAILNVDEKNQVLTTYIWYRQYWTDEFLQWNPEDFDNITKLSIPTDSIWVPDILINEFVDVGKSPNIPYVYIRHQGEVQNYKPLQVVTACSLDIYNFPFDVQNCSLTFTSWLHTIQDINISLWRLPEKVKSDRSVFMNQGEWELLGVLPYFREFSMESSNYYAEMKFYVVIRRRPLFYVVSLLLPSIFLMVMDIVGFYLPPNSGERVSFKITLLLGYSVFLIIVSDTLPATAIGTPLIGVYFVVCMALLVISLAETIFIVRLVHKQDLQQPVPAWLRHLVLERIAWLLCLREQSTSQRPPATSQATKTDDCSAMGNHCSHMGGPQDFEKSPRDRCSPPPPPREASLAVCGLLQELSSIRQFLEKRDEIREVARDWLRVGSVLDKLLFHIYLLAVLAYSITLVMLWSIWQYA

α7 nAChR = α7 nAChR (Homo sapiens, UniProt P36544)
Sequence of α7 nAChR (P36544 23-502): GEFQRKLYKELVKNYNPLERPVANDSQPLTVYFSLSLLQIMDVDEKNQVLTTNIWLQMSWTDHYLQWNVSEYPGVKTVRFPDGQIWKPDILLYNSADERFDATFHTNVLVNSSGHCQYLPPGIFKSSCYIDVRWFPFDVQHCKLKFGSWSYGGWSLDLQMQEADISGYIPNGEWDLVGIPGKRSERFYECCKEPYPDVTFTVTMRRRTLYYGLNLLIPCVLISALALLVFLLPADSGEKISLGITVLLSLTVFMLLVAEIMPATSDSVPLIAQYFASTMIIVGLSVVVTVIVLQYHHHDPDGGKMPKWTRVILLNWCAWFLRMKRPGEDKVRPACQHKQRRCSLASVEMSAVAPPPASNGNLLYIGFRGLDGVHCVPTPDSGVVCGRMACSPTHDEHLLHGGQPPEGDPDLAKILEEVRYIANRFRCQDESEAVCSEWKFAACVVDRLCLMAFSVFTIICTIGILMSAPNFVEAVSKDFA

SMILES: COc1ccc(/C=C2\CCCN=C2c2cccnc2)c(OC)c1 [GTS-21]
- activity at the 5HT3R (5HT3R): little activity

SMILES: Cc1cc([C@@H]2CCCN2C)on1 [ABT-418]
- cognition and attention (clinical trials of Alzheimer's disease and attention-deficit disorders): improves cognition and attention

SMILES: Cc1nccn1CC1CCc2c(c3ccccc3n2C)C1=O (stereo not shown) [Ondansetron]
- activity at the α7 nAChR (α7 nAChR): little activity

SMILES: CN1CCCC1c1cccnc1 (stereo not shown) [nicotine]
- cognition and attention (human, in vivo): increases cognition and attention
